For 41 compounds, TGI and GI50 results are on record in PubChem BioAssay (NCI).

What all share (assay): growth of human tumour cells (NCI), 48 h
Assay [1] relates to KM20L2 colon.
For assay [2], the system named is HOP-18 NSCLC.
The subject of assay [3] is SNB-78 CNS.
Assay [4] concerns LXFL 529 NSCLC.
In assay [5] the test system is DMS 114 small cell lung.
The subject of assay [6] is M19-MEL melanoma.
The test system of assay [7] is MDA-N.
For assay [8], the system named is XF 498 CNS.
Assay [9] has as its system RXF-631 renal.

SMILES strings stand for the structures. Values joined by “and” are separate entries in the source; they are usually repeats but may differ in a detail not shown here. Equal entries are not always repeated.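 Tested at 5 concentrations; 48 h exposure; 96-well plates; endpoints linearly interpolated, else capped at highest concentration. GI50 is the concentration that inhibits growth by half. TGI: concentration producing complete growth inhibition.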 Where only a bound is given, the exact number is not on record here.

With `[N-]=[N+]=NC(c1cn(C2CC(O)C(CO)O2)c(=O)[nH]c1=O)C(Cl)Br` (stereo unspecified), the TGI in [1], in assay [2], in [3], in assay [4], in assay [5] and in assay [6] was > 100 µM in each case.
Take `COc1ccc(-c2c(C)c(C(=O)O)nc(-c3ccc4c(O)c(OC)c5c(c4n3)=NC(C)(C)N=5)c2N)c(O)c1OC`: the TGI in assay [7] came out at 39.9 µM.
Same read-out and setting: with `O=[N+]([O-])c1cccc(/C=N/NC2=CS(=O)(=O)C=C2)c1` the figure was > 100 µM; with `O=[N+]([O-])c1ccc(NN=C2CN3CCN(C2)c2ccccc23)c([N+](=O)[O-])c1`, > 100 µM.
For `O=[N+]([O-])/C=C/c1c(Cl)cccc1Cl`, the TGI in assay [7] was found to be 6.85 µM.
The same measure, in the same setting: with `O=c1[nH]c(=O)n(C2CC(O)C(CO)O2)cc1Oc1ccccc1` (stereo unspecified) the figure was > 100 µM.
With `CC(C)(C)C1CCC2c3c([nH]c4ccccc34)C3C(=O)N(c4ccc(C#N)cc4)C(=O)C3C2C1` (stereo unspecified), in assay [7], the TGI amounted to 26.9 µM.
On to `O=C1C2C(C(=O)N1c1ccccc1)C1c3ccccc3C2C2C(=O)N(c3ccccc3)C(=O)C21` (stereo unspecified), for which the TGI in [1] is 42.8 µM; in assay [2] it was > 100 µM; in assay [4] it was > 100 µM; in assay [5] it was 27 µM; in assay [6], > 100 µM.
In the case of `Cc1cc(N(CCC#N)S(=O)(=O)c2ccccc2)ccc1/C=C1\N=C(c2ccc(Cl)cc2)OC1=O`, the TGI in [8], in assay [1], in [3], in assay [4] and in [5] was > 100 µM in each case.
Turning to `C(/C=N/NC1=NCCCCN1)=N\NC1=NCCCCN1`, in assay [7], the TGI is > 100 µM.
In the case of `O=S(=O)(NC1CCCCC1)c1ccc2c(c1)OCCOCCOCCOCCO2`, the TGI in assay [7] is > 100 µM.
On to `COC1C(OC(=O)c2ccc(C)[nH]2)C(O)C(Oc2ccc3c(O)c(NC(=O)c4c[nH]c(C(=O)Nc5c(O)c6ccc(OC7OC(C)(C)C(OC)C(OC(=O)c8ccc(C)[nH]8)C7O)c(C)c6oc5=O)c4C)c(=O)oc3c2C)OC1(C)C` (stereo unspecified), for which the TGI in assay [1] stood at 15.6 µM; in [2], 3.37 µM; in assay [3], 7.37 µM; in assay [4], 8.03 µM; in [5], 6.75 µM.
Turning to `O=C(/C=C(\O)C(=O)O)/C=C(\O)c1ccccc1`, the GI50 is > 1 µM in assay [8]; > 1 µM in assay [1]; > 1 µM in [3]; > 1 µM in assay [4]; > 100 µM in [5]; > 1 µM in assay [6]. For the same compound, the TGI in assay [8], in assay [1], in assay [2], in assay [3], in assay [4] and in assay [5] was > 100 µM in each case. In assay [6], the TGI was > 100 µM.
As to `C=CC(=O)N1C/C(=C\c2ccc(Cl)c(Cl)c2)C(=O)/C(=C/c2ccc(Cl)c(Cl)c2)C1`, the TGI in assay [1] was 0.545 µM; in [2] it was 1.38 µM; in assay [9], 1.89 µM; in assay [3], 0.838 µM; in assay [4], 0.345 µM; in [5], 0.309 µM. Also, the TGI in assay [6] was 0.4 µM.
`O=c1c2c([nH]c3nccn13)CCC2`: the TGI in assay [7] is > 10 µM.
Turning to `O=c1cc(-c2ccccn2)[nH]c2cccc(F)c12`, the TGI in assay [1], in assay [2], in assay [9], in assay [3], in assay [4] and in [5] was > 100 µM throughout. Also, in assay [6], the TGI is > 100 µM.
Regarding `COc1cc(CNc2nc3c(N)cc(C(F)(F)F)cc3nc2-c2ccccc2)cc(OC)c1OC`, the TGI is 86.2 µM in assay [8]; > 100 µM in assay [1]; > 100 µM in [2]; > 100 µM in [9]; > 100 µM in assay [4]; > 100 µM in [5]. The TGI in [6] is > 100 µM. Moreover, in [2], the GI50 was > 100 µM.
For `C1=C(c2ccccc2)C(N2CCOCC2)Oc2ccccc21` (stereo unspecified), the TGI in assay [7] is > 100 µM.
As to `CCO/C=C1\N=C(c2ccc(Cl)c(Cl)c2)OC1=O`, the TGI in assay [8], in assay [1], in assay [3], in assay [4], in assay [5] and in [6] was > 100 µM in each case.
For `Cc1cc2c(c(C(N)=O)c1C)-c1cccc(F)c1C2=O`, the TGI in [8], in assay [1], in assay [3], in assay [4], in assay [5] and in [6] was > 100 µM each time.
Take `O=C1NC(N/N=C\C(O)C(O)C(O)C(O)CO)=N/C1=C/c1ccccc1` (stereo unspecified): in assay [7], the GI50 is 89 µM and 15.7 µM and > 100 µM; the TGI is > 100 µM and 31.6 µM.
On to `C=CO/N=[N+](\[O-])N(CC)CC`, for which the TGI in [7] is > 100 µM.
Regarding `O=C(O)C(Cc1cnc[nH]1)N1C(=O)c2ccccc2C1=O` (stereo unspecified), the TGI in assay [7] is > 100 µM.
Turning to `CCOC(=O)NC(=O)c1cn(CCN2CCN(C(=O)CNC(=O)CNC(=O)Cn3cc(C(=O)NC(=O)OCC)c(=O)[nH]c3=O)CC2)c(=O)[nH]c1=O`, the TGI in assay [8], in assay [1], in [2], in [3], in assay [4] and in assay [5] was > 100 µM in each case. For the same compound, the TGI in [6] was > 100 µM.
In the case of `CCOC(=O)N1C/C(=C\c2ccccc2)C(=O)/C(=C/c2ccccc2)C1`, the TGI in [7] was 3.62 µM; in assay [8] it was 26.6 µM; in [1] it was 22.4 µM; in [2], > 67.5 µM; in [3], > 81.2 µM; in assay [4], 12.4 µM. The TGI worked out at 14.5 µM in assay [5] and 3.22 µM in assay [6].
For `CC(C)N(C(=O)c1cccc(C(=O)N(C(C)C)C(C)C)c1)C(C)C`, the TGI in assay [8], in assay [1], in assay [2], in assay [9], in [3] and in [4] was > 100 µM in each case. For the same compound, the TGI in assay [5] and in [6] was > 100 µM each time.
Regarding `COC(C)(C)[C@@H](O)[C@H](O)C[C@H](C)C1=C2CC[C@@H]3[C@@]4(C)CC[C@@H](OC(C)=O)C(C)(C)[C@@H]4C[C@@H](OC4OC(COC(C)=O)C(O)C(O)C4O)[C@@]3(C)[C@]2(C)CC1` (stereo partly specified), in [7], the GI50 is 11.8 µM and the TGI turned out to be 24.6 µM.
As for `C#CC1(O)CCC2C3CCc4cc(Oc5nc(F)nc(-c6c7ccccc7c7n6CCS7)n5)ccc4C3CC[C@@]21C` (stereo partly specified), the TGI in [8] was > 100 µM; in [1] it was > 100 µM; in assay [4], 57.3 µM; in assay [5] it was 44.7 µM; in assay [6], > 100 µM.
In the case of `COc1ccccc1N=Nc1c(-c2ccccc2)nn(C(=O)CC(=O)Nc2cccc(C)c2)c1-c1ccccc1`, the TGI was 61.5 µM in assay [8]; 88.1 µM in assay [1]; > 100 µM in [2]; > 100 µM in [9]; > 100 µM in assay [3]; > 100 µM in assay [4]. The TGI is 77.1 µM in assay [5] and > 100 µM in assay [6].
In the case of `COC(=O)CCC(NC(=S)N/N=C(\C)c1ccc[nH]1)C(=O)OC` (stereo unspecified), the TGI in assay [8], in assay [1], in assay [2], in assay [3], in assay [4] and in assay [5] was > 100 µM each time. The TGI in assay [6] was > 100 µM.
On to `CC(C)/C=C1\CCC(CN2CCOCC2)C1=O` (stereo unspecified), for which the TGI in [8] is 33.4 µM; in assay [1] it was 38.2 µM; in assay [2], 31.8 µM; in [3], 37.4 µM; in [4], 8.24 µM; in [6], > 57.2 µM.
As to `ClC(Cl)=C(Cl)C1(Cl)CC1COCc1ccccc1` (stereo unspecified), the TGI is 73.6 µM in assay [8]; > 100 µM in [1]; 60.6 µM in assay [3]; > 100 µM in assay [4]; 59.6 µM in [5]; 73.6 µM in assay [6].
Regarding `CSC(=S)Nc1cc(C)cc(C)n1`, the TGI in [7] is > 31.6 µM.
For the compound `C=CCn1c(=S)sc2c(C(=O)OCC)c3c(C)cc(C)cn3c2c1=O`, the TGI in [1], in assay [3], in [4] and in assay [6] was > 100 µM in each case.
`CN1C(=O)c2ccc3ccccc3c2C1=O`: the TGI in [7] is > 100 µM.
Take `O=c1cccccc1[O-].O=c1cccccc1[O-].O=c1cccccc1[O-].[Eu+3]`: in assay [1], the GI50 was 27.2 µM and the TGI was > 100 µM. Moreover, in [3], the GI50 was 20.1 µM and the TGI was > 100 µM.
Consider `COc1cc(/C=C/c2ccc(C)cc2)cc(OC)c1OC`, for which the TGI is 2.89 µM in assay [7]; 13.9 µM in [8]; 4.69 µM in [1]; > 100 µM in assay [2]; 9.81 µM in [3]; > 48.8 µM in assay [4]. Also, the results for the TGI in [5] and in [6] were > 100 µM and > 88.9 µM, respectively.
Take `Cn1cnc(N)c(N=O)c1=O`: the TGI in assay [7] is > 10 µM.
As to `Cc1c(C(=O)C/C(=N/NC(=O)c2ccccc2)C(=O)Nc2ccc(Cl)cc2)[n+](=O)c2ccccc2n1[O-]`, the TGI in [8], in assay [2], in [9], in [3], in assay [4] and in assay [5] was > 100 µM in each case.
On to `CCC[CH2][Sn]([CH2]CCC)([O]C(=O)c1cc(OC)c(OC)cc1OC)[O][Sn]([CH2]CCC)([CH2]CCC)[O]C(=O)c1cc(OC)c(OC)cc1OC`, for which the GI50 in assay [8] was 0.196 µM; in assay [1] it was 1.21 µM; in assay [2] it was 1.78 µM; in assay [9], 0.158 µM; in assay [3] it was 0.402 µM; in assay [4], 0.0599 µM. The GI50 is 0.314 µM in assay [5] and 0.347 µM in assay [6]. Also, the TGI in assay [8] is 0.508 µM; in assay [1], 2.56 µM; in [2], 3.16 µM; in assay [9], 0.365 µM; in [3], 1.51 µM; in assay [4] it was 0.214 µM. Moreover, the TGI was 1.26 µM in [5] and 1.7 µM in assay [6].
`CCC1(O)CC(OC2CC(N(C)C)C(OC3CC(O)C(OC4OC(C)C(=O)C=C4N)C(C)O3)C(C)O2)c2c(cc3c(c2O)C(=O)c2c(O)cccc2C3=O)C1C(=O)OC` (stereo unspecified): in assay [7], the TGI is 0.207 µM and 0.139 µM.
